From patent publication US11020457B2, “Compositions and methods for protecting the kidney from ischemia reperfusion injury” (University of Virginia Patent Foundation, priority 2013, dated 2021)
“Also recorded” adds a separate entry of the source.

Assays:
Assay type in all cases: in vivo
[1] = tested on: C57BL/6 mice; experiment: Renal IRI in WT mice: plasma creatinine, H&E histology, NGAL
Method: (§1) All experiments were performed in accordance with the National Institutes of Health and Institutional Animal Care and Use Guidelines. The Animal Care and Use Committee of the University of Virginia approved all procedures and protocols. C57BL/6 mice from the Jackson Laboratory and hepcidin knockout mice (HAMP−/−), a kind gift from Dr Cindy Roy (John Hopkins University) were used in this study. All experiments were performed on 8-10 weeks old male mice. Kidney ischemia-reperfusion surgery was performed as previously reported (44). The core temperature of the mice was maintained between 34° C. and 36° C. using a heating pad. After anesthetizing the mice (ketamine, 12 mg/ml; atropine, 0.48 mg/ml; xylazine, 24 mg/ml; […] mixture administered per 20 g body weight), bilateral flank incisions were made, both renal pedicles were exposed, and cross-clamped for 26 minutes (severe I/R injury) or 24 minutes (mild I/R injury). After the determined ischemia, clamps were removed, and kidneys were allowed to reperfuse for 24 hours. Ambient postoperative air temperature was maintained between 30° C. and 32° C. until mice had fully recovered. Sham-operated animals underwent bilateral flank incisions without clamping of renal pedicles. Twenty-four hours later, mice were euthanized, and tissues were harvested.
(§2) Animals were divided into three groups, injected intraperitoneally with water and underwent IRI (IRI), injected intraperitoneally with 50-100 μg hepcidin at different time points prior to IRI (Hepcidin-IRI) or were sham operated (Sham). The experimental design is depicted in FIG. 2a.
(§3) Renal function was determined by measurement of plasma creatinine, determined using a modified Jaffe colorimetric assay (44).
(§4) Kidneys were fixed in buffered formalin for 48 h, embedded in paraffin, sectioned (3-μm thickness), and stained with hematoxylin and eosin (H&E). The extent of acute tubular necrosis (ATN) following IRI was assessed using H&E stained kidney sections. An investigator blinded to the sample identities was used for these analyses to have an unbiased approach.
(§5) For RNA isolation, frozen tissues were re-suspended in RLT buffer (Qiagen Inc, Valencia, Calif.) and homogenized using TissueLyser system (Qiagen Inc, Valencia, Calif.). Total RNA from tissue homogenate was purified using RNAeasy mini kit (Qiagen Inc, Valencia, Calif.) following manufacturers instructions. 1 μg of RNA was used to synthesize cDNA using the iScript cDNA synthesis kit (Bio-Rad). The cDNA template was mixed with iTAQ SYBR green universal super mix (Bio-Rad) and quantitative PCR was carried out on CFX Connect system (Bio-Rad). Predesigned primers for Caspase-3 and Bcl-2 were purchased from Bio-rad. Glyceraldehyde-3-phosphate dehydrogenase (GAPDH) was amplified in parallel and used as the reference gene in quantification. Data is expressed as the relative gene expression and was calculated using the 2 (−ρρC(T)) method.

[2] = tested on: hepcidin knockout mice (HAMP−/−); experiment: Mild renal IRI in HAMP-/- mice: plasma creatinine, histology, NGAL; conditions: for plasma creatinine: HAMP-/- mice, single 50 μg bolus of hepcidin 24 hours before 24 min ischemia, 24 hours reperfusion, p<0.0007; for renal histology (H&E): hepcidin treated HAMP-/- IRI mice
Method: as §1, §3, §4, §5
Given the significance of hepcidin-mediated ferroportin regulation in preventing renal IRI, we hypothesized that genetic hepcidin deficiency would aggravate IRI. […] There was no significant rise in plasma creatinine after mild IRI in the WT mice and sham operated HAMP^−/− mice (FIG. 6a). […] Renal histology further corroborated the deleterious effect of hepcidin deficiency in AKI. There were higher numbers of casts and necrotic tubules in the S1, S2 and S3 segments in HAMP^−/− kidneys after IRI (FIG. 6b, and Sup FIG. 3b). To investigate if hepcidin re-constitution could rescue HAMP^−/− mice from IRI, we injected these mice with a single 50 μg bolus of hepcidin, 24 hours before renal ischemia and sacrificed them 24 hours after reperfusion. Strikingly, a single injection of hepcidin afforded an almost complete protection against IRI in the HAMP^−/− mice.

[3] = tested on: hepcidin knockout mice (HAMP−/−); experiment: Mild renal IRI in HAMP-/- mice: kidney H-Ferritin and apoptosis (Caspase-3, Bcl-2, TUNEL); conditions: for kidney Caspase-3 expression: HAMP-/- IRI Vs HAMP-/- Hepcidin-IRI, p<0.007, FIG. 7c; for TUNEL-positive cells in the kidney: hepcidin treated HAMP-/- IRI vs HAMP-/- IRI, FIG. 7g; for kidney H-Ferritin levels: hepcidin treated HAMP-/- IRI vs untreated p<0.05, lower than sham p<0.005, FIG. 7a-b
Method: as §1
(§6) Apoptotic cells in the kidney were detected by TUNEL assay following the manufacturer's protocol (Roche Diagnostics, Mannheim, Germany). Briefly, PLP-fixed kidney sections were immersed in 3% hydrogen peroxide-methanol (10 minutes) and permeabilized with cold 0.1% Triton-X100 and 0.1% […] (2 minutes). DNA fragments in apoptotic cells were then labeled and identified by terminal transferase dUTP conjugated to fluorescein (Roche Diagnostics) for 60 minutes at room temperature in dark. The apoptotic cells were imaged using a Zeiss Axiovert 200 microscope with Apo Tome (Zeiss).
Snap frozen tissue sections were homogenized in Tris-Triton tissue lysis buffer containing complete protease inhibitor cocktail using a Dounce Homogenizer. Membrane fractions were isolated from the whole kidney lysate using membrane isolation kit (Thermo Pierce) to determine ferroportin expression. H-Ferritin was measured in the whole kidney and spleen lysates. Protein content in the homogenate was estimated using the BCA protein estimation kit. Twenty to thirty microgram of protein per sample were loaded on a 10% NuPage Bis-Tris gel under reducing conditions. The resolved proteins were transferred onto a Nitrocellulose membrane (Licor Bioscience) and probed with goat anti-mouse H-Ferritin (Santa Cruz) and rabbit anti-mouse ferroportin (Novus Biologics) antibodies. The primary antibodies were detected with Donkey anti-goat Alexa 800 and goat anti-rabbit Alexa 800 antibodies (LiCor Bioscience). Mouse monoclonal GAPDH and β-Actin (Abcam) were used as the loading controls and detected using Donkey anti Mouse Alexa 680 antibody (LiCor Bioscience). Quantitation of data was performed using densitometry software (Licor Bioscience).
as §5
WT mice injected with hepcidin had higher levels of H-Ferritin and less apoptotic kidney injury. […]

[4] = tested on: hepcidin knockout mice (HAMP−/−); experiment: Renal IRI in HAMP-/- mice: serum IL-6 by ELISA; conditions: HAMP-/- IRI Vs HAMP-/- Hepcidin-IRI, p<0.05; FIG. 10b
Method: as §1, with “Twenty-four hours later, mice were euthanized, and tissues were harvested.” left out
Serum iron (Abcam), hepcidin (Intrinsic Lifescience) and IL-6 levels (eBioscience) were measured using commercial ELISA kits, as per manufacturers instructions.

[5] = tested on: C57BL/6 mice; experiment: Renal IRI in WT mice: Western blot of kidney ferroportin and H-Ferritin; conditions: for kidney ferroportin expression (membrane fraction): pretreatment with hepcidin, p<0.01, FIG. 5a-b
Method: as §1, with “harvested. […]” for “harvested.”
Snap frozen tissue sections were homogenized in Tris-Triton tissue lysis buffer containing complete protease inhibitor cocktail using a Dounce Homogenizer. […] H-Ferritin was measured in the whole kidney and spleen lysates. […] The primary antibodies were detected with Donkey anti-goat Alexa 800 and goat anti-rabbit Alexa 800 antibodies (LiCor Bioscience). Mouse monoclonal GAPDH and β-Actin (Abcam) were used as the loading controls and detected using Donkey anti Mouse Alexa 680 antibody (LiCor Bioscience). Quantitation of data was performed using densitometry software (Licor Bioscience).

[6] = tested on: C57BL/6 mice; experiment: Renal IRI in WT mice: kidney apoptosis (Caspase-3, Bcl-2 real time PCR, TUNEL); conditions: for TUNEL reactivity in kidney: 26 minutes ischemia, 24 hours reperfusion, FIG. 3e-f; for kidney Caspase-3 expression: hepcidin before IRI, vs IRI p<0.005, vs sham p<0.03, FIG. 3a; for kidney Bcl2 expression: hepcidin-IRI vs untreated IRI, p<0.0008, FIG. 3b
Method: as §1, §2, §6, §5

## Mouse hepcidin 25 (DTNFPICIFCCKCCNNSQCGICCKT; listed as Mus musculus)
[1]; 50 versus 100 μg hepcidin, 24 hours before IRI
  plasma creatinine, comparison of doses: no significant differences in plasma creatinine
[1]; IRI Vs Hepcidin-IRI, p<0.001
  kidney NGAL expression: significantly lower expression of NGAL
[1]; hepcidin 50 μg 24 hours before IRI, FIG. 2e
  renal architecture / tubular necrosis (H&E): fewer necrotic tubules and luminal debris
[1]; hepcidin 50 μg injected 2 hours prior to IRI, p<0.001 vs untreated IRI
  plasma creatinine: significantly reduced plasma creatinine levels
[1]; hepcidin 50 μg injected 8 hours prior to IRI, p<0.001 vs untreated IRI
  plasma creatinine: significantly reduced plasma creatinine levels
[1]; single bolus of 50 or 100 μg hepcidin intraperitoneally, 24 hours before IRI, measured 24 hours after IRI, p<0.0001
  plasma creatinine: significantly lowered plasma creatinine levels; also recorded: maximum protection
[2]; HAMP-/- IRI Vs HAMP-/- Hepcidin-IRI, p<0.05
  kidney NGAL expression: significantly lowered NGAL expression
[2]
  plasma creatinine: not significantly different than shams and WT mice
  renal histology (H&E): Hepcidin mediated protection of the kidney after IRI
[2]; listed as hepcidin
  plasma creatinine: significantly lower compared to untreated mice with levels comparable to that in sham-operated mice
  renal histology (H&E): remarkable preservation of renal histology
[3]; HAMP-/- Hepcidin-IRI Vs HAMP-/- IRI, p<0.005, FIG. 7d
  kidney Bcl-2 expression: prevented the decrease in Bcl-2 expression; also recorded: higher level of anti apoptotic Bcl2
[3]
  kidney Caspase-3 expression: lower transcriptional activation of pro apoptotic Caspase3
  TUNEL-positive cells in the kidney: markedly reduced
  kidney H-Ferritin levels: significantly higher H ferritin levels
[3]; listed as hepcidin
  kidney Caspase-3 expression: almost completely prevented
  TUNEL-positive cells in the kidney: significantly fewer TUNEL-positive cells
  kidney H-Ferritin levels: significantly higher than in untreated
[4]
  serum IL-6 levels: prevented IRI-induced increase in IL-6 levels; also recorded: significantly reduced serum IL6 compared to untreated
[5]; hepcidin-IRI Vs IRI p<0.005, Vs Sham p<0.05, FIG. 5c-d
  kidney H-Ferritin expression: significantly higher H-Ferritin expression compared to both untreated IRI mice and sham mice; also recorded: prevented
[5]
  kidney ferroportin expression (membrane fraction): prevented the IRI induced upregulation
[5]; listed as hepcidin
  kidney ferroportin expression (membrane fraction): levels comparable to sham mice
[6]
  TUNEL reactivity in kidney: reduced by Hepcidin pretreatment
  kidney Caspase-3 expression: significantly reduced IRI-induced Caspase-3 expression; also recorded: lower transcriptional activation of pro apoptotic Caspase3
  kidney Bcl2 expression: better preservation of anti apoptotic Bcl2
[6]; listed as hepcidin
  TUNEL reactivity in kidney: remarkably fewer TUNEL-positive tubules
  kidney Caspase-3 expression: even lower than the sham mice
  kidney Bcl2 expression: significantly higher expression of Bcl2 compared to untreated IRI mice
